This note sets out measurements from PMC12598559, “Absorption characteristics and in vivo behavior of astaxanthin isomers: insights from the administration of highly purified (all-E)-, (9Z)-, and (13Z)-astaxanthin in male mice” (RSC Advances, 2025).

The conditions of data set [1]: mouse, iv; for AUC0–∞ / C max: in vivo, 10 mg/kg.
Method: (§1) All animal experiments were performed in the I Tech Lab. Co., Ltd (Gifu, Japan). The study protocol was approved by the Institutional Animal Care and Use Committee of the company (approval numbers: ITL-25-MO-385 for the oral administration test and ITL-25-MV-386 for the intravenous injection test). Slc:ICR (ICR) male mice aged 7–8 weeks, supplied by Japan SLC Inc. (Shizuoka, Japan), were used in this study. The body weight of the mice at the beginning of the experiments ranged from 42.8 to 52.3 g. The mice were maintained under stable laboratory conditions (temperature: 18–28 °C; humidity: 30–80%; 12 h light/dark cycle) and provided with drinking water and a standard laboratory diet (MF; Oriental Yeast Co., Ltd, Tokyo, Japan) throughout the acclimation and testing periods. After an 11-day acclimation period, single oral administration and intravenous injection tests were conducted. For the oral administration test, 15 mice were randomly assigned to four groups: control (placebo; soybean oil administered), (all-E)-astaxanthin administered (n = 4), (9Z)-astaxanthin administered (n = 4), and (13Z)-astaxanthin administered (n = 4). Each astaxanthin isomer was administered to mice at a dose of 100 mg per kg body weight. […] Blood samples were collected before and 3, 6, 9, 12, and 24 h after the administration of the test diets. Fecal samples were collected 6–24 h after administering astaxanthin. In the intravenous injection test, 15 mice were randomly assigned to four groups: control (placebo; solvent intravenously injected), (all-E)-astaxanthin intravenously injected (n = 4), (9Z)-astaxanthin intravenously injected (n = 4), and (13Z)-astaxanthin intravenously injected (n = 4). Each astaxanthin isomer was intravenously injected into mice at a dose of 10 mg per kg body weight.[24] Blood samples were collected before and 1, 3, 6, 9, and 12 h after injecting the test samples. After these tests, the mice were sacrificed by exsanguination under anesthesia (ketamine hydrochloride and xylazine hydrochloride), and the liver was collected. Plasma samples were prepared from heparin-treated blood by centrifugation. The collected plasma, liver, and fecal samples were immediately stored at −80 °C under dark condition until just before astaxanthin extraction.
(§2) Astaxanthin isomers in the plasma, liver, and fecal samples were extracted according to previous reports.[14,15] In brief, astaxanthin isomers in plasma were extracted using hexane containing 0.01% BHT. An equal volume of methanol was added to each plasma sample to precipitate the proteins prior to hexane extraction. The extraction was performed three times using a vortex mixer for 30 s. After separating the hexane and aqueous layers by centrifugation, the hexane layer was carefully collected and removed using an evaporator. The obtained solid was dissolved in a mixture of hexane and ethyl acetate (9 : 1), filtered through a 0.22 μm PTFE membrane filter, and analyzed using HPLC. Astaxanthin isomers in liver and fecal samples were extracted using acetone containing 0.01% BHT. The samples were ultrasonicated at 80 W and 38 kHz for 30 min in ice water (∼5 °C) to facilitate extraction. The extraction residue was separated from the extraction liquid using a 0.22 μm PTFE membrane filter. The filtrate containing astaxanthin isomers was concentrated to dryness using an evaporator. Finally, the residue was dissolved in a mixture of hexane and ethyl acetate (9 : 1), filtered through a 0.22 μm PTFE membrane filter, and analyzed using HPLC. To minimize the isomerization and degradation of astaxanthin during the extraction process, heat and light exposure were carefully controlled.
For data set [2] the following is noted: male, ICR, mouse; for F NCA (absolute oral bioavailability) / AUC0–∞ / C max / T max: in vivo, 100 mg/kg; for AUC0–∞ / C max / T max / in vivo isomerization in plasma: po.
Method: as §1, §2

Read-outs that look alike come from different tables or passages of the source. Marks after values point to notes of the source that are not given here.

Take `CC(C=CC=C(C)C=CC1=C(C)C(=O)C(O)CC1(C)C)=CC=CC=C(C)C=CC=C(C)C=CC1=C(C)C(=O)C(O)CC1(C)C` (stereo not drawn) [(9Z)-Astaxanthin, (9Z)-astaxanthin]: in data set [1] (male, ICR), the “AUC0–∞” value was 19400 ± 3300 ng·h/mL and the C max stood at 2030 ± 160 ng/mL. The “in vivo isomerization in plasma” value in data set [1] was “markedly limited isomerization”. Moreover, in data set [2], the “F NCA (absolute oral bioavailability)” value is 0.04, the “AUC0–∞” value is 4330 ± 2070 ng·h/mL, the C max is 1010 ± 510 ng/mL and the T max amounted to 4 h. Moreover, in data set [2], the “in vivo isomerization in plasma” value was “isomerized into a variety of Z-isomers, including the all-E-, 13Z-, and 15Z-isomers, and two unidentified Z-isomers”.

As to `CC(C=CC=C(C)C=CC1=C(C)C(=O)C(O)CC1(C)C)=CC=CC=C(C)C=CC=C(C)C=CC1=C(C)C(=O)C(O)CC1(C)C` (stereo not drawn) [(13Z)-Astaxanthin, (13Z)-astaxanthin], in data set [1] (male, ICR), the “AUC0–∞” value is 127100 ± 32400 ng·h/mL and the C max came out at 5460 ± 1340 ng/mL. Also, the “in vivo isomerization in plasma” value in data set [1] is “the isomer composition remained relatively stable”. In data set [2], the “F NCA (absolute oral bioavailability)” value is 0.18, the “AUC0–∞” value amounted to 82200 ± 57400 ng·h/mL, the C max was 7700 ± 5090 ng/mL and the T max was 6 h. The “in vivo isomerization in plasma” value in data set [2] is on record as “a minor portion of the 13Z-isomer isomerized to the all-E-isomer”.

In the case of `CC(C=CC=C(C)C=CC1=C(C)C(=O)C(O)CC1(C)C)=CC=CC=C(C)C=CC=C(C)C=CC1=C(C)C(=O)C(O)CC1(C)C` (stereo not drawn) [(all-E)-Astaxanthin, (all-E)-astaxanthin], in data set [1] (male, ICR), the “AUC0–∞” value was determined as 310 ± 200 ng·h/mL, the C max was found to be 100 ± 70 ng/mL and the “in vivo isomerization in plasma” value is “the proportion of the 13Z-isomer gradually increased over time”. Moreover, in data set [2], the “F NCA (absolute oral bioavailability)” value amounted to 0.12, the “AUC0–∞” value stood at 1460 ± 1350 ng·h/mL, the C max stood at 10 ± 10 ng/mL and the T max is recorded as 3 (9) ^d h. In data set [2], the “in vivo isomerization in plasma” value was “a small portion of (all-E)-astaxanthin was converted to the 13Z- and 15Z-isomers”.
